Drawing on PubChem BioAssay (NCI), this text covers TGI for 28 molecules.

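Dose response: 5 concentrations. Exposure: 48 h. Format: 96-well plates. Endpoint: linear interpolation; highest concentration if not reached. TGI: concentration producing complete growth inhibition.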

Common to all, as to assay: DTP human tumour cell line panel, 48 h
Test [1] deals with CCRF-CEM leukemia.
Test [2] has as its system DU-145 prostate.
In test [3] the test system is HOP-62 NSCLC.
Test [4] has as its system IGROV1 ovarian.
The subject of test [5] is KM12 colon.
Test [6] concerns MDA-MB-231 breast.
For test [7], the system named is NCI/ADR-RES ovarian.
For test [8], the system named is OVCAR-8 ovarian.
Test [9] relates to RPMI-8226 leukemia.
Test [10] relates to U251 CNS.

`CN(C)c1ccc(/C=C(\NC(=O)c2ccccc2)C(=O)NC(CC(=O)O)C(=O)O)cc1` (stereo unspecified): the TGI in test [1], in test [2], in [3], in test [4], in test [5] and in [6] was above 100 µM in each case. For the same molecule, the TGI in [7], in test [8], in test [9] and in [10] was above 100 µM throughout.

On to `OCc1cn(Cc2ccccc2)c2ccccc12`, for which the TGI (commonly the concentration giving total growth inhibition) in test [1] was above 40.9 µM; in [2], above 37.2 µM; in test [3], above 100 µM; in [4] it was 2.09 µM; in test [5], above 63.8 µM; in [6] it was 54.5 µM. The TGI in test [7] was 42.4 µM; in [8] it was 46.9 µM; in [9] it was 12.1 µM; in test [10] it was 60.6 µM.

As for `CN(CCN1CCCC1)C1CCc2cc(Cl)c(Cl)cc2C1` (stereo unspecified), the TGI in [1] was above 100 µM; in [2], 26 µM; in [3] it was 32.7 µM; in test [4] it was 29.3 µM; in test [5], 40.4 µM; in test [6], 34.7 µM. In addition, the TGI came out at 28 µM in test [7], 30.8 µM in test [8], 55.4 µM in test [9] and 32.6 µM in [10].

For `CC(=O)Nc1nc(Cl)cc(NCC2(CO)CCC2)n1`, the TGI in [1], in [2], in test [3], in [4], in [5] and in test [6] was above 100 µM in each case. Also, the TGI in test [7], in test [8], in test [9] and in test [10] was above 100 µM in each case.

`Cc1c(C)n(-c2ccccc2)c2nc(S(C)=O)nc(S(C)=O)c12` (stereo unspecified): the TGI worked out at 3.88 µM in [1]; 27.5 µM in [2]; 36.5 µM in [3]; 17.2 µM in test [4]; 28.1 µM in test [5]; 17.3 µM in [6]. Besides, the TGI in test [7] came to 59.2 µM; in test [8] it was 12.4 µM; in [9], 5.28 µM; in [10] it was 21.1 µM.

Take `Cc1ccc2cccc(-c3cccc4ccccc34)c2n1`: the TGI is 50 µM in test [1]; above 100 µM in test [2]; 56.9 µM in [3]; above 100 µM in test [4]; 63.4 µM in test [5]; 81 µM in test [6]. Moreover, the TGI in test [7] was above 100 µM; in test [8] it was 57.7 µM; in [9], 40.2 µM; in test [10], 29.9 µM.

In the case of `O=CC(I)=C(c1ccccc1)c1ccccc1`, the TGI in test [1] is above 69.9 µM; in test [2], 32.7 µM; in test [3], 32 µM; in test [4] it was 37.5 µM; in [5] it was 28.7 µM; in test [6], 29 µM. Besides, the TGI is 45.1 µM in test [7], 53.8 µM in test [8], above 59 µM in test [9] and 30.2 µM in test [10].

On to `C[C@@H]1CC[C@@]2(C)C(C(=O)O)=CCCC2[C@@]1(C)CC(=O)c1ccoc1` (stereo partly specified), for which the TGI in test [1], in test [2], in test [4], in [5], in test [6] and in [7] was above 25 µM in each case. Besides, the TGI in [8], in test [9] and in test [10] was above 25 µM in each case.

Turning to `CC1CC(N2CCOCC2)=Nc2ccccc2N1C` (stereo unspecified), the TGI in [1], in [2], in [3], in test [4], in [5] and in test [6] was above 100 µM in each case. Also, the TGI in test [7], in [8], in [9] and in test [10] was above 100 µM in each case.

On to `O=C(c1ccco1)N(C(=O)N1CCCCC1)c1ccccc1`, for which the TGI in test [1], in test [2], in test [4], in test [5], in test [6] and in [7] was above 100 µM in each case. Also, the TGI in test [8], in test [9] and in test [10] was above 100 µM throughout.

As for `c1ccc(C2=NC3OC2c2ccccc23)cc1` (stereo unspecified), the TGI in [1], in test [2], in [3], in test [4], in test [5] and in [6] was above 10 µM in each case. For the same molecule, the TGI in test [7], in test [8], in test [9] and in test [10] was above 10 µM throughout.

As for `CCCCI(O)OS(=O)(=O)c1ccc(C)cc1`, the TGI in test [1] was 76.3 µM; in [2] it was above 100 µM; in test [3], above 100 µM; in test [4], 73.8 µM; in test [5] it was above 100 µM; in test [6], above 100 µM. Moreover, the TGI in test [7], in test [8], in test [9] and in [10] was above 100 µM in each case.

Regarding `N#Cc1c(-c2ccc([N+](=O)[O-])cc2)cc(-c2ccc(Nc3ccnc4cc(Cl)ccc34)cc2)[nH]c1=O`, the total growth inhibition concentration (TGI) in test [2], in [3], in test [4], in test [5], in test [6] and in [7] was above 100 µM in each case. Also, the TGI in test [8], in test [9] and in [10] was above 100 µM each time.

As for `[N-]=[N+]=CC(=O)C1CCCN1C(=O)c1ccccc1` (stereo unspecified), the TGI in [1], in test [2], in [3], in test [4], in test [5] and in test [6] was above 10 µM throughout. Moreover, the TGI in test [7], in test [8], in test [9] and in [10] was above 10 µM each time.

With `COc1ccc(C2Oc3ccc(Cl)cc3C=C2[N+](=O)[O-])cc1` (stereo unspecified), the TGI in test [1], in test [2], in test [3], in [4], in test [5] and in test [6] was above 100 µM throughout. Further, the TGI in test [7], in test [8], in test [9] and in test [10] was above 100 µM each time.

On to `O=C(ON=C1c2ccccc2C(Br)C(Br)c2ccccc21)c1ccccc1` (stereo unspecified), for which the TGI was determined as 2.05 µM in [1]; 31.8 µM in test [2]; 17.3 µM in test [3]; 6.27 µM in [4]; 33.5 µM in [5]; 33.5 µM in test [6]. The TGI in test [7] is 51.4 µM; in test [8], 30.8 µM; in test [9], 14.7 µM; in test [10], 31.6 µM.

As to `CCOC1C=CC(=O)C(CO)O1` (stereo unspecified), the TGI in [1] was 6.07 µM; in [2], 31.2 µM; in [3], 28.4 µM; in [4] it was 27.6 µM; in [5] it was 31.5 µM; in test [6], 32.1 µM. Further, the TGI in [7] came out at 33.2 µM; in test [8] it was 26 µM; in [9] it was 6 µM; in test [10], 27.9 µM.

For the molecule `O=C(CC(NC(=O)C(F)(F)F)C(=O)O)OCc1ccccc1` (stereo unspecified), the TGI in test [1], in [2], in test [3], in test [4], in test [5] and in test [6] was above 100 µM throughout. In addition, the TGI in test [7], in [8], in test [9] and in [10] was above 100 µM each time.

Turning to `COC(=O)[C@]1(C)CCC[C@@]2(C)C1CC[C@]13C=C(C(C)C)[C@H](CC21)CC3(Cl)C#N` (stereo partly specified), the TGI in test [1] was 60.6 µM; in test [2] it was above 100 µM; in [3] it was above 100 µM; in test [4], above 100 µM; in [5], above 100 µM; in test [6], above 100 µM. In addition, the TGI is above 100 µM in test [7], above 100 µM in [8] and 49.4 µM in test [10].

On to `S=C(Cc1ccc2c(c1)Sc1ccccc1O2)N1CCOCC1`, for which the TGI in test [2], in test [3], in [4], in test [5], in test [6] and in test [7] was above 100 µM in each case. For the same molecule, the TGI in test [8], in test [9] and in test [10] was above 100 µM throughout.

In the case of `O=C(/C=C/c1ccc(Cl)cc1)Oc1ccc(C=C2CCC/C(=C\c3ccc(OC(=O)/C=C/c4ccc(Cl)cc4)cc3)C2=O)cc1`, the concentration for total growth inhibition (TGI) in test [2], in test [3], in [4], in test [5], in test [6] and in test [7] was above 100 µM in each case. Further, the total growth inhibition concentration (TGI) is above 100 µM in test [8], 97.1 µM in [9] and above 100 µM in test [10].

As to `c1ccc2c(c1)SCCCS2`, the TGI in test [1], in test [2], in test [3], in test [4], in test [5] and in [6] was above 100 µM in each case. Also, the TGI in test [7], in test [8] and in test [10] was above 100 µM throughout.

For the molecule `CN(C)C(=O)C(F)(F)C(c1ccc(F)cc1)C1C(=O)N(C)C(=O)N(C)C1=O` (stereo unspecified), the TGI in test [1], in test [2], in test [3], in test [5], in test [6] and in test [7] was above 100 µM throughout. For the same molecule, the TGI in [8], in [9] and in test [10] was above 100 µM in each case.

Regarding `CCOC(=O)c1c(N2CCCC2)[nH]c(=O)c(C(c2ccc(OC)cc2)c2c(O)c(C(=O)OCC)c(N3CCCC3)[nH]c2=O)c1O`, the TGI in test [1] was above 100 µM; in test [2], above 100 µM; in [3], above 100 µM; in [5], above 100 µM; in test [6] it was 88.1 µM; in test [7], above 100 µM. The TGI in test [8], in test [9] and in test [10] was above 100 µM each time.

For `COC(=O)CNC(=O)C(CSC(=O)OCC1c2ccccc2-c2ccccc21)NC(=O)CCC(NC(=O)OCC1c2ccccc2-c2ccccc21)C(=O)OC` (stereo unspecified), the TGI was 38.7 µM in [1]; above 100 µM in [2]; 40.2 µM in test [3]; 31.6 µM in [4]; 30.2 µM in [6]; above 100 µM in test [7]. The results for the TGI in test [8] and in [9] were 30.4 µM and 90.1 µM, respectively.

Regarding `Cc1nc(N)c(N2CCN(C#N)CC2)c(=O)[nH]1`, the concentration for total growth inhibition (TGI) in test [1], in [2], in test [3], in [5], in test [6] and in test [7] was above 100 µM in each case. In addition, the TGI in [8], in test [9] and in test [10] was above 100 µM in each case.

In the case of `O=c1ccc2ccc(S)cc2o1`, the TGI in [2], in test [3], in test [4], in [5], in test [6] and in test [7] was above 100 µM in each case. Besides, the TGI in [8], in test [9] and in test [10] was above 100 µM each time.

With `Clc1cccc(-c2sc(-c3cccs3)cc2Cc2cccs2)c1`, the TGI in test [1], in test [2], in test [3], in test [4], in [5] and in test [6] was above 10 µM in each case. In addition, the TGI in test [7], in test [8] and in [9] was above 10 µM each time.
